Assay results published in US20090162315A1 (priority 2004, published 2009).
“And” between values parts separate entries of the source, which are not always exact repeats. Equal entries are not always repeated.

What was measured:
[1] = test system: T84 human colon-carcinoma cells; format: cell-based
[2] = test system: T84 human colon-carcinoma cells; format: cell-based; remark: listed apart in the source
[3] = test system: T84 human colon-carcinoma cells; format: cell-based; remark: listed apart in the source
[4] = test system: patients with MPE; conditions: in vivo; cited from earlier work

## N.N.[Cl][Pt][Cl] [Cisplatin, cis-diaminodichloroplatinum]
[1]
  Δ Isc to CCh (μA/cm2): 20 μA/cm2
  Δ Isc to Fsk (% of control): 90 % of control
[2]
  TER (Ω/cm^2): 800 Ω/cm^2 and 750 Ω/cm^2
[3]
  ^51Cr-EDTA flux (nml · h · cm^2): 2.8 nml · h · cm^2

## Staphylococcal enterotoxin B [SEB]
[1]
  Δ Isc to CCh (μA/cm2): 23 μA/cm2
  Δ Isc to Fsk (% of control): 95 % of control

## bleomycin
[4]
  Response rate in MPE: 50%
